Experimental data: patent US9150566B2, “2-(1,2,3-triazol-2-yl)benzamide and 3-(1,2,3-triazol-2-YL)picolinamide derivatives as orexin receptor antagonists” (ACTELION PHARMACEUTICALS LTD., priority 2011, dated 2015)

Experiments:
CYP3A4 = CYP3A4 (Homo sapiens (Human), UniProt P08684); experiment: CYP3A4 inhibition assay (human liver microsomes, testosterone 6β-hydroxylation); conditions: read-out: CYP3A4 IC50, 40 μM testosterone
human orexin-1 receptor = human orexin-1 receptor (Homo sapiens (Human), UniProt O43613); experiment: In vitro intracellular calcium measurements (FLIPR), antagonistic activity on orexin-1 receptor; assay type: cell-based; conditions: CHO cells expressing human orexin-1 receptor; FLIPR; 3 nM orexin-A agonist; 120 min antagonist incubation; geometric mean if determined several times; read-out: IC50 OX1
Procedure: (§1) In Vitro Assay: Intracellular Calcium Measurements:
(§2) Chinese hamster ovary (CHO) cells expressing the human orexin-1 receptor and the human orexin-2 receptor, respectively, are grown in culture medium (Ham F-12 with L-Glutamine) containing 300 μg/mL G418, 100 U/mL penicillin, 100 μg/mL streptomycin and 10% heat inactivated fetal calf serum (FCS). The cells are seeded at 20′000 cells/well into 384-well black clear bottom sterile plates (Greiner). The seeded plates are incubated overnight at 37° C. in 5% CO2.
(§3) Within the Fluorescent Imaging Plate Reader (FLIPR Tetra, Molecular Devices), antagonists are added to the plate in a volume of 10 μL/well, incubated for 120 min and finally 10 μL/well of agonist is added. Fluorescence is measured for each well at 1 second intervals, and the height of each fluorescence peak is compared to the height of the fluorescence peak induced by 3 nM orexin-A with vehicle in place of antagonist. […] Optimized conditions were achieved by adjustment of pipetting speed and cell splitting regime. The calculated IC50 values may fluctuate depending on the daily cellular assay performance. Fluctuations of this kind are known to those skilled in the art.

human orexin-2 receptor = human orexin-2 receptor (Homo sapiens (Human), UniProt O43614); experiment: In vitro intracellular calcium measurements (FLIPR), antagonistic activity on orexin-2 receptor; assay type: cell-based; conditions: CHO cells expressing human orexin-2 receptor; FLIPR; 3 nM orexin-A agonist; 120 min antagonist incubation; geometric mean if determined several times; read-out: IC50 OX2
Procedure: as §1, §2, §3

human orexin-2 receptor, sequence (O43614 whole entry): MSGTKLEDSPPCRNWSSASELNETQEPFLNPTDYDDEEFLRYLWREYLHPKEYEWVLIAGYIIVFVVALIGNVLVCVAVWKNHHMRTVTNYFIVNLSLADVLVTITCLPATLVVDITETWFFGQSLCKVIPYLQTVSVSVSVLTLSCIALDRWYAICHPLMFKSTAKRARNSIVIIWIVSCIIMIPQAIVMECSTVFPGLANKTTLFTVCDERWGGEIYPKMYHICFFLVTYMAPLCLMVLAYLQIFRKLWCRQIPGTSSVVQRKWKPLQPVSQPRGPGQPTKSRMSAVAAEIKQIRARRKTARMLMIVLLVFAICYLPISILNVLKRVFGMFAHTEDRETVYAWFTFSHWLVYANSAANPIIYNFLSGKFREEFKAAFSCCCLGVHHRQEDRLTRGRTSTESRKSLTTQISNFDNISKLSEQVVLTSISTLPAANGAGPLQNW
CYP3A4, sequence (P08684 whole entry): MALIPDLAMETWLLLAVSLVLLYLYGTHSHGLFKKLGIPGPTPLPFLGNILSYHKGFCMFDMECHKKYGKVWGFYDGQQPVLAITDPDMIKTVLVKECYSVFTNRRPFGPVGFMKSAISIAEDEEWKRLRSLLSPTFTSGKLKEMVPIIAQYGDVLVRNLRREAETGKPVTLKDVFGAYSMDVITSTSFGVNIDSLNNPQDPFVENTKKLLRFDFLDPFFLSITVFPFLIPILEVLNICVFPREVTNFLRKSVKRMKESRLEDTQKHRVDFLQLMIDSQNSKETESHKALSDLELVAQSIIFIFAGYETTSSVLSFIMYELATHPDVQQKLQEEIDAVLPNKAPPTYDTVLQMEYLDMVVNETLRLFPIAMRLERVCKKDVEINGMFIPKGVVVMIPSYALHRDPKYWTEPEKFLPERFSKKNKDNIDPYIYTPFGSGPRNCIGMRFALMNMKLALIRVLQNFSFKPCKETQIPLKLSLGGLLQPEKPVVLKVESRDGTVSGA
human orexin-1 receptor, sequence (O43613 whole entry): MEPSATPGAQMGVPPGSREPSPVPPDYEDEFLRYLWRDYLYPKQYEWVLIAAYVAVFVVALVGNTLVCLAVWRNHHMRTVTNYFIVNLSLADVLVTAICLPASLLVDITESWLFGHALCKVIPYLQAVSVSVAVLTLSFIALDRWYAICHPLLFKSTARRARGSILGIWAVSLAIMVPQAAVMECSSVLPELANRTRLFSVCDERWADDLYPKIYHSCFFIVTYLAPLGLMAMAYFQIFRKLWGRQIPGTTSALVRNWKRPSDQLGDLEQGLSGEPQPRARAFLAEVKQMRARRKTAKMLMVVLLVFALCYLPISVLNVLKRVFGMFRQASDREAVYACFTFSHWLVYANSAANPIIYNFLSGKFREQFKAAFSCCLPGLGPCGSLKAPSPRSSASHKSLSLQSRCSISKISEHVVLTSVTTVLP

Row | Structure (SMILES) | IC50 (CYP3A4) [nM] | IC50 (human orexin-1 receptor) [nM] | IC50 (human orexin-2 receptor) [nM]
1 | Cc1ccc(C(=O)N2CCO[C@@H](C)[C@H]2Cc2cccc(-n3nccn3)c2)c(-n2nccn2)c1 (single isomer, unassigned) [Example 163, [(2S,3R)-2-Methyl-3-(3-[1,2,3]triazol-2-yl-benzyl)-morpholin-4-yl]-(4-methyl-2-[1,2,3]triazol-2-yl-phenyl)-methanone or [(2R,3R)-2-Methyl-3-(3-[1,2,3]triazol-2-yl-benzyl)-morpholin-4-yl]-(4-methyl-2-[1,2,3]triazol-2-yl-phenyl)-methanone] | 14000 | – | –
2 | Cc1ccc(C(=O)N2CCO[C@H](C)[C@H]2Cc2cccc(-n3nccn3)c2)c(-n2nccn2)c1 (single isomer, unassigned) [Example 168, [(2R,3R)-2-Methyl-3-(3-[1,2,3]triazol-2-yl-benzyl)-morpholin-4-yl]-(4-methyl-2-[1,2,3]triazol-2-yl-phenyl)-methanone or [(2S,3R)-2-Methyl-3-(3-[1,2,3]triazol-2-yl-benzyl)-morpholin-4-yl]-(4-methyl-2-[1,2,3]triazol-2-yl-phenyl)-methanone] | 8500 | – | –
3 | O=C(c1ccccc1-n1nccn1)N1CCOC[C@H]1Cc1cccc(-c2ncon2)c1 [Example 1, [(R)-3-(3-[1,2,4]Oxadiazol-3-yl-benzyl)-morpholin-4-yl]-(2-[1,2,3]triazol-2-yl-phenyl)-methanone] | > 50000 | 40 | 803
4 | Cc1ccc(-n2nccn2)c(C(=O)N2CCOC[C@H]2Cc2cccc(-c3ncon3)c2)c1 [Example 2, (5-Methyl-2-[1,2,3]triazol-2-yl-phenyl)-[(R)-3-(3-[1,2,4]oxadiazol-3-yl-benzyl)-morpholin-4-yl]-methanone] | 43000 | 7 | 406
5 | Cc1ccc(-n2nccn2)c(C(=O)N2CCOC[C@H]2Cc2cccc(-c3ncccn3)c2)c1F [Example 49, (2-Fluoro-3-methyl-6-[1,2,3]triazol-2-yl-phenyl)-[(R)-3-(3-pyrimidin-2-yl-benzyl)-morpholin-4-yl]-methanone] | 21000 | – | 582
6 | Cc1cccc(C(=O)N2CCOC[C@H]2Cc2cccc(-c3ncon3)c2)c1-n1nccn1 [Example 83, (3-Methyl-2-[1,2,3]triazol-2-yl-phenyl)-[(R)-3-(3-[1,2,4]oxadiazol-3-yl-benzyl)-morpholin-4-yl]-methanone] | 25000 | 7 | –
7 | O=C(c1cc(F)ccc1-n1nccn1)N1CCOC[C@H]1Cc1cccc(-c2ncon2)c1 [Example 88, (5-Fluoro-2-[1,2,3]triazol-2-yl-phenyl)-[(R)-3-(3-[1,2,4]oxadiazol-3-yl-benzyl)-morpholin-4-yl]-methanone] | – | 30 | 893
8 | Cc1cc(C)c(-n2nccn2)c(C(=O)N2CCOC[C@H]2Cc2cccc(-c3ncon3)c2)c1 [Example 89, (3,5-Dimethyl-2-[1,2,3]triazol-2-yl-phenyl)-[(R)-3-(3-[1,2,4]oxadiazol-3-yl-benzyl)-morpholin-4-yl]-methanone] | – | 7 | 420
9 | Cc1cc(-n2nccn2)c(C(=O)N2CCOC[C@H]2Cc2cccc(-n3nccn3)c2)cc1Cl [Example 103, (5-Chloro-4-methyl-2-[1,2,3]triazol-2-yl-phenyl)-[(R)-3-(3-[1,2,3]triazol-2-yl-benzyl)-morpholin-4-yl]-methanone] | – | 0.7 | 47
10 | COc1cc(C(=O)N2CCOC[C@H]2Cc2cccc(-n3nccn3)c2)c(-n2nccn2)cc1Cl [Example 104, (4-Chloro-5-methoxy-2-[1,2,3]triazol-2-yl-phenyl)-[(R)-3-(3-[1,2,3]triazol-2-yl-benzyl)-morpholin-4-yl]-methanone] | 13000 | – | 117
11 | Cc1ccc(C(=O)N2C[C@@H](C)OC[C@H]2Cc2cccc(-c3ncccn3)c2)c(-n2nccn2)c1C [Example 112, (3,4-Dimethyl-2-[1,2,3]triazol-2-yl-phenyl)-[(2R,5R)-2-methyl-5-(3-pyrimidin-2-yl-benzyl)-morpholin-4-yl]-methanone] | > 50000 | – | 839
12 | Cc1cc(C(=O)N2CCOC[C@H]2Cc2cc(-n3nccn3)ccc2F)c(-n2nccn2)cc1C [Example 128, (4,5-Dimethyl-2-[1,2,3]triazol-2-yl-phenyl)-[(R)-3-(2-fluoro-5-[1,2,3]triazol-2-yl-benzyl)-morpholin-4-yl]-methanone] | – | 0.7 | 30
13 | O=C(c1c(F)cccc1-n1nccn1)N1CCOC[C@H]1Cc1cc(-n2nccn2)ccc1F [Example 136, [(R)-3-(2-Fluoro-5-[1,2,3]triazol-2-yl-benzyl)-morpholin-4-yl]-(2-fluoro-6-[1,2,3]triazol-2-yl-phenyl)-methanone] | – | 37 | 574
14 | O=C(c1cc(F)c(F)cc1-n1nccn1)N1CCOC[C@H]1Cc1cc(-n2nccn2)ccc1F [Example 137, (4,5-Difluoro-2-[1,2,3]triazol-2-yl-phenyl)-[(R)-3-(2-fluoro-5-[1,2,3]triazol-2-yl-benzyl)-morpholin-4-yl]-methanone] | – | 30 | 202
15 | Cc1ccc(-n2nccn2)c(C(=O)N2C[C@@H](C)OC[C@H]2Cc2cc(-n3ccnn3)ccc2F)c1 [Example 140, [(2R,5R)-5-(2-Fluoro-5-[1,2,3]triazol-1-yl-benzyl)-2-methyl-morpholin-4-yl]-(5-methyl-2-[1,2,3]triazol-2-yl-phenyl)-methanone] | – | 27 | 1110
16 | Cc1ccc(-n2nccn2)c(C(=O)N2C[C@@H](C)OC[C@H]2Cc2cc(-c3ncccn3)ccc2F)c1 [Example 147, [(2R,5R)-5-(2-Fluoro-5-pyrimidin-2-yl-benzyl)-2-methyl-morpholin-4-yl]-(5-methyl-2-[1,2,3]triazol-2-yl-phenyl)-methanone] | 28000 | – | 171
17 | C[C@@H]1CN(C(=O)c2ccccc2-n2nccn2)[C@H](Cc2cc(-c3ncccn3)ccc2F)CO1 [Example 148, [(2R,5R)-5-(2-Fluoro-5-pyrimidin-2-yl-benzyl)-2-methyl-morpholin-4-yl]-(2-[1,2,3]triazol-2-yl-phenyl)-methanone] | – | 39 | 1940
18 | Cc1ccc(C(=O)N2C[C@@H](C)OC[C@H]2Cc2cc(-c3ncccn3)ccc2F)c(-n2nccn2)c1C [Example 151, (3,4-Dimethyl-2-[1,2,3]triazol-2-yl-phenyl)-[(2R,5R)-5-(2-fluoro-5-pyrimidin-2-yl-benzyl)-2-methyl-morpholin-4-yl]-methanone] | – | 8 | 818
19 | C[C@@H]1CN(C(=O)c2ccc(Cl)cc2-n2nccn2)[C@H](Cc2cc(-c3ncccn3)ccc2F)CO1 [Example 153, (4-Chloro-2-[1,2,3]triazol-2-yl-phenyl)-[(2R,5R)-5-(2-fluoro-5-pyrimidin-2-yl-benzyl)-2-methyl-morpholin-4-yl]-methanone] | 18000 | – | 85
20 | Cc1ccc(-n2nccn2)c(C(=O)N2CCOC[C@H]2Cc2cc(-c3ncccn3)ccc2F)c1 [Example 155, [(R)-3-(2-Fluoro-5-pyrimidin-2-yl-benzyl)-morpholin-4-yl]-(5-methyl-2-[1,2,3]triazol-2-yl-phenyl)-methanone] | 30000 | – | 371
21 | Cc1cccc(C(=O)N2CCOC[C@H]2Cc2cc(-c3ncccn3)ccc2F)c1-n1nccn1 [Example 157, [(R)-3-(2-Fluoro-5-pyrimidin-2-yl-benzyl)-morpholin-4-yl]-(3-methyl-2-[1,2,3]triazol-2-yl-phenyl)-methanone] | – | 39 | 2590
22 | Cc1ccc(C(=O)N2CCOC[C@H]2Cc2cc(-c3ncccn3)ccc2F)c(-n2nccn2)c1C [Example 158, (3,4-Dimethyl-2-[1,2,3]triazol-2-yl-phenyl)-[(R)-3-(2-fluoro-5-pyrimidin-2-yl-benzyl)-morpholin-4-yl]-methanone] | 40000 | – | 2260
23 | O=C(c1ccc(Cl)cc1-n1nccn1)N1CCOC[C@H]1Cc1cc(-c2ncccn2)ccc1F [Example 160, (4-Chloro-2-[1,2,3]triazol-2-yl-phenyl)-[(R)-3-(2-fluoro-5-pyrimidin-2-yl-benzyl)-morpholin-4-yl]-methanone] | 17000 | – | 268
24 | Cc1cccc(C(=O)N2CCOC[C@H]2Cc2cc(-c3ncon3)ccc2F)c1-n1nccn1 [Example 177, [(R)-3-(2-Fluoro-5-[1,2,4]oxadiazol-3-yl-benzyl)-morpholin-4-yl]-(3-methyl-2-[1,2,3]triazol-2-yl-phenyl)-methanone] | – | 25 | 893
25 | O=C(c1ccccc1-n1nccn1)N1CCOC[C@H]1Cc1ccc(Cl)c(-c2ncccn2)c1 [Example 194, [(R)-3-(4-Chloro-3-pyrimidin-2-yl-benzyl)-morpholin-4-yl]-(2-[1,2,3]triazol-2-yl-phenyl)-methanone] | – | 33 | 2260
26 | O=C(c1ccccc1-n1nccn1)N1CCC[C@H]1Cc1cccc(-n2nccn2)c1 [Ref. 1] | 5500 | 4 | –
